# Test results reported in article PMC9019904, “AD Informer Set: Chemical tools to facilitate Alzheimer's disease drug discovery” (Alzheimer's & Dementia : Translational Research & Clinical …, 2022).
# Legend:
# [1] = system: BV2 (mouse microglia) cell line; assay: pHrodo-myelin phagocytosis/cell viability high content imaging assay: phagocytosis signal; type: cell-based
# Method in brief: (§1)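 Simultaneous phagocytosis/viability imaging at approximately 22 h after adding pHrodo-myelin. Rising intensity flagged early apoptosis and falling intensity later apoptosis.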
# [2] = system: HMC3 (human microglia) cell line; assay: as above; type: cell-based
# Method in brief: as §1
# [3] = system: BV2 (mouse microglia) cell line; assay: pHrodo-myelin phagocytosis/cell viability high content imaging assay: viability (cell count, nuclear area, nuclear intensity); conditions: 48 hours treatment
# Method in brief: (§2)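 BV2 mouse and HMC3 human microglia were treated with compounds at 10 μM for 48 h, with pHrodo-myelin present for the last 20 h. Viability was imaged as total cell count per well and mean nuclear intensity per cell. Values are means of duplicates, normalized to untreated wells as % control.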
# [4] = system: HMC3 (human microglia) cell line; assay: as above; conditions: 48 hours treatment
# Method in brief: as §2
# [5] = BV2 cells, 10 uM compound, 48 hours treatment, pHrodo-myelin final 20 hours
# [6] = HMC3 cells, 10 uM compound, 48 hours treatment, pHrodo-myelin final 20 hours
# [7] = BV2, compound 10 uM, pHrodo-myelin
# [8] = HMC3, compound 10 uM, pHrodo-myelin
Structure (SMILES),"4. Phagocytosis (% control) [1, 5]","4. Phagocytosis (% control) [2, 6]","1. Cell count (% control) ([3]; BV2 cells, 10 uM compound)","2. Nuclear Area (% Control) ([3]; BV2 cells, 10 uM compound)","3. Nuclear DNA Intensity (% control) ([3]; BV2 cells, 10 uM compound)","1. Cell count (% control) ([4]; HMC3 cells, 10 uM compound)","2. Nuclear Area (% Control) ([4]; HMC3 cells, 10 uM compound)","3. Nuclear DNA Intensity (% control) ([4]; HMC3 cells, 10 uM compound)","4. Phagocytosis (% control) [1, 7]","4. Phagocytosis (% control) [2, 8]","1. Cell count (% control) ([3]; BV2, compound 10 uM)","2. Nuclear Area (% Control) ([3]; BV2, compound 10 uM)","3. Nuclear DNA Intensity (% control) ([3]; BV2, compound 10 uM)","1. Cell count (% control) ([4]; HMC3, compound 10 uM)","2. Nuclear Area (% Control) ([4]; HMC3, compound 10 uM)","3. Nuclear DNA Intensity (% control) ([4]; HMC3, compound 10 uM)"
O=C(Nc1ccc2[nH]nc(-c3ccncc3)c2c1)[C@@H]1CCN(CC(=O)N2CCN(c3ccc(-c4ncccn4)cc3)CC2)C1 [UNC10302854A],359.5 % control,37.1 % control,43.5 % control,114.7 % Control,111.9 % control,103.4 % control,110.6 % Control,94.1 % control,–,–,–,–,–,–,–,–
C[C@H](N/C(=N\c1cccc2ncccc12)NC#N)c1ccccc1 [UNC10302855A],124.5 % control,63.4 % control,130.8 % control,103.4 % Control,103.1 % control,114.9 % control,101.2 % Control,97.7 % control,–,–,–,–,–,–,–,–
O=C(Nc1ccc([N+](=O)[O-])cc1Cl)c1cc(Cl)ccc1O [UNC10302856A],133.2 % control,50.1 % control,132.8 % control,104.4 % Control,103.0 % control,150.0 % control,101.6 % Control,94.0 % control,–,–,–,–,–,–,–,–
COS(=O)(=O)[O-].C[n+]1c2ccccc2nc2ccccc21 [UNC10302857A],27.9 % control,0.031 % control,16.9 % control,123.3 % Control,59.8 % control,60.7 % control,61.5 % Control,197.5 % control,–,–,–,–,–,–,–,–
CNC(=O)[C@H](Cc1c[nH]c2ccccc12)NC(=O)[C@@H](CC(=O)NO)CC(C)C [UNC10302858A],100.0 % control,82.4 % control,101.6 % control,102.8 % Control,98.5 % control,86.0 % control,95.1 % Control,101.4 % control,–,–,–,–,–,–,–,–
Cc1cc(Nc2nc(N[C@@H](C)c3ncc(F)cn3)ncc2Cl)n[nH]1 [UNC10302859A],–,–,–,–,–,–,–,–,153.2 % control,95.5 % control,53.2 % control,109.7 % Control,105.5 % control,84.7 % control,121.3 % Control,92.5 % control
Cc1ccccc1C(=O)Nc1ccc(C(=O)N2CCCC(O)c3cc(Cl)ccc32)c(C)c1 (centres unmarked) [UNC10302860A],–,–,–,–,–,–,–,–,197.1 % control,100.1 % control,118.5 % control,108.9 % Control,107.5 % control,130.2 % control,105.3 % Control,93.3 % control
CC(C)(O)c1coc(S(=O)(=O)[N-]C(=O)Nc2c3c(cc4c2CCC4)CCC3)c1.[Na+] [UNC10302861A],115.8 % control,105.6 % control,111.0 % control,101.8 % Control,106.4 % control,119.4 % control,98.5 % Control,105.7 % control,–,–,–,–,–,–,–,–
Cc1cc(SCc2sc(-c3ccc(C(F)(F)F)c(F)c3)nc2C)ccc1OCC(=O)O [UNC10302862A],104.2 % control,107.7 % control,73.4 % control,105.0 % Control,104.6 % control,84.5 % control,103.8 % Control,93.4 % control,–,–,–,–,–,–,–,–
COc1cc(Nc2ncc(F)c(Nc3ccc4c(n3)N(COP(=O)([O-])[O-])C(=O)C(C)(C)O4)n2)cc(OC)c1OC.[Na+].[Na+] [UNC10302863A],0.00651 % control,201.3 % control,16.5 % control,113.6 % Control,22.9 % control,80.8 % control,86.8 % Control,124.3 % control,–,–,–,–,–,–,–,–
CNC(=O)c1c(F)cccc1Nc1nc(Nc2cc3c(cc2OC)CCN3C(=O)CN(C)C)nc2[nH]ccc12 [UNC10302864A],89.4 % control,58.3 % control,66.3 % control,109.6 % Control,102.8 % control,108.9 % control,90.1 % Control,123.0 % control,–,–,–,–,–,–,–,–
CNC(=O)CN1CCC(Oc2cc3c(Nc4cccc(Cl)c4F)ncnc3cc2OC)CC1 [UNC10302865A],68.8 % control,152.7 % control,102.4 % control,110.1 % Control,101.0 % control,132.1 % control,105.8 % Control,90.8 % control,–,–,–,–,–,–,–,–
Cc1cnc(Nc2ccc(F)cc2Cl)nc1-c1c[nH]c(C(=O)N[C@H](CO)c2cccc(Cl)c2)c1 [UNC10302866A],108.3 % control,72.8 % control,83.7 % control,101.5 % Control,113.9 % control,106.8 % control,98.0 % Control,96.6 % control,–,–,–,–,–,–,–,–
CCN(CC)c1ccc(/C=N/NC(=O)c2ccc(O)cc2)cc1 [UNC10302868A],142.8 % control,65.0 % control,64.8 % control,105.9 % Control,100.1 % control,102.3 % control,101.3 % Control,100.0 % control,–,–,–,–,–,–,–,–
CC(C)Nc1cc(-c2c[nH]c(C(=O)N[C@H](CO)c3cccc(Cl)c3)c2)c(Cl)cn1 [UNC10302869A],222.2 % control,59.0 % control,44.0 % control,125.5 % Control,96.6 % control,116.3 % control,105.5 % Control,89.1 % control,–,–,–,–,–,–,–,–
CC(C)CCN1c2nc(Nc3cc(F)c(O)c(F)c3)ncc2N(C)C(=O)C1C (centres unmarked) [UNC10302870A],–,–,–,–,–,–,–,–,123.8 % control,178.1 % control,15.1 % control,106.7 % Control,111.0 % control,49.2 % control,127.1 % Control,123.8 % control
Oc1c(F)cc(-c2cnccc2-c2ccc(N3CCOCC3)cc2)cc1F [UNC10302871A],–,–,–,–,–,–,–,–,174.2 % control,84.7 % control,98.2 % control,107.6 % Control,98.3 % control,123.1 % control,101.3 % Control,92.9 % control
C=C1C(=O)[C@]23[C@H](O)[C@H]1CC[C@H]2[C@@]12CO[C@]3(O)[C@@H](O)[C@@H]1C(C)(C)CC[C@@H]2O [UNC10302873A],–,–,–,–,–,–,–,–,153.4 % control,0.0307 % control,12.1 % control,120.3 % Control,80.8 % control,42.7 % control,59.1 % Control,208.5 % control
Cc1ccc(F)c(NC(=O)Nc2ccc(-c3cccc4[nH]nc(N)c34)cc2)c1 [UNC10302874A],–,–,–,–,–,–,–,–,235.2 % control,29.4 % control,24.4 % control,127.6 % Control,103.1 % control,43.1 % control,121.8 % Control,105.6 % control
